{"source": "patent US11382985B2", "about": "“Anti-tumour immune responses to modified self-epitopes” (Scancell Limited, priority 2015, dated 2022)", "system": "PBMCs", "assay": "PBMC culture and IFNγ Elispot", "assay_type": "cell-based, human", "conditions": "donors 1 and 4, PBMCs cultured 13 days; label = restimulating peptide", "method": "PBMC were isolated from freshly drawn heparinised blood by Ficol-Hypaque (Sigma) gradient centrifugation. PBMC (1.5×10^6 cells/well) were stimulated with single peptides (final concentration 10 μg/ml) in RPMI containing 5% pooled autologous human serum, 2 mM glutamine, 20 mM HEPES, Penicillin-streptomycin (1%), 10 ng/ml recombinant human IL-15 and 5 ng/ml recombinant human IL-7 in a final volume of 2 ml. Recombinant human IL-2 was added on day 3 at 20 IU/ml. On day 13 cells were washed and added to human IFN elispot assay. Elispot assays were performed using human IFNγ capture and detection reagents according to the manufacturer's instructions (Mabtech, Sweden). In brief, anti-IFNγ antibody was coated onto wells of 96-well Immobilin-P plate. Synthetic peptides (at 10 μg/ml) and 1×10^5 per well PBMCs were added to the wells of the plate in quadruplicate and plates incubated for 20 hrs at 37° C. After incubation, captured IFNγ was detected by biotinylated anti-IFN antibody and developed with a streptavidin alkaline phosphatase and chromogenic substrate. Spots were analysed and counted using an automated plate reader (Cellular Technologies Ltd).", "note": "Square brackets hold non-standard residues; d marks the D form. Ends that are not written are not given here. Cit = NC(=O)NCCC[C@H](N)C(=O)O"}
{"substance": "VIGMDVAASEFF-CIT-SGKYDLD (VIGMDVAASEFF[Cit]SGKYDLD; listed as Homo sapiens) [Enolase 241cit]", "values": [{"measurement": "IFNγ response on restimulation", "value": "show responses"}]}
